According to PubChem BioAssay (NCI):
Where “and” joins values, the source holds several entries; their conditions need not be identical. Equal entries are not always repeated.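 Briefly, cells in 96-well plates were exposed to five compound concentrations for 48 h, and endpoints were estimated by linear interpolation. GI50: concentration for 50% inhibition of growth. The concentration for full growth arrest is given as TGI.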

Key:
Assay in all cases: DTP human tumour cell line panel, 48 h
A549 NSCLC = tested on: A549 NSCLC
BT-549 breast = tested on: BT-549 breast
HOP-62 NSCLC = tested on: HOP-62 NSCLC
MCF7 breast = tested on: MCF7 breast
PC-3 prostate = tested on: PC-3 prostate
SNB-75 CNS = tested on: SNB-75 CNS
T-47D breast = tested on: T-47D breast
TK-10 renal = tested on: TK-10 renal
UO-31 renal = tested on: UO-31 renal
EKVX NSCLC = tested on: EKVX NSCLC

Structure (SMILES) | GI50 (A549 NSCLC) | TGI (A549 NSCLC) [µM] | GI50 (BT-549 breast) [µM] | TGI (BT-549 breast) [µM] | GI50 (HOP-62 NSCLC) | TGI (HOP-62 NSCLC) [µM] | GI50 (MCF7 breast) | TGI (MCF7 breast) [µM] | GI50 (PC-3 prostate) | TGI (PC-3 prostate) [µM] | GI50 (SNB-75 CNS) [µM] | TGI (SNB-75 CNS) [µM] | GI50 (T-47D breast) [µM] | TGI (T-47D breast) [µM] | GI50 (TK-10 renal) [µM] | TGI (TK-10 renal) [µM] | GI50 (UO-31 renal) [µM] | TGI (UO-31 renal) [µM] | GI50 (EKVX NSCLC) [µM] | TGI (EKVX NSCLC) [µM]
O=[N+]([O-])c1ccc2c(c1)C(c1ccccc1Cl)=Nc1cn[nH]c1N2 | 19.7 µM | > 25 | 16.2 | > 25 | > 20.7 µM | > 25 | 10.9 µM | > 25 | 14.3 µM | > 25 | 0.618 | > 21.2 | 14 | > 25 | 15.5 | > 25 | 11.1 | > 25 | – | –
CC(C)S(=O)(=O)c1ccccc1Nc1nc(Nc2cccc(NC(=O)CN)c2)ncc1Cl | 0.147 µM | 9.03 | 0.149 | 1 | 0.112 µM | 6.13 | 0.0177 µM | 1.25 | 0.308 µM | 5.9 | 0.0346 | 0.41 | 0.586 | 4.68 | 0.362 | 7.86 | 0.176 | 4.08 | 1.5 | 10.1
CCCCC1(CN2CCOCC2)S/C(=N/c2nc(CC(=O)OCC)cs2)NC1=O (stereo not drawn) | 33.4 µM | > 100 | 41.8 | > 100 | 44.7 µM | > 100 | 34.4 µM | > 100 | – | – | 29.4 | > 100 | 41.5 | > 100 | 31.7 | 99.1 | 33 | > 100 | 38.9 | > 100
CCc1ccccc1NC(=O)c1sc2nc3c(cc2c1N)C(=O)CCC3 | 0.656 µM | > 100 | 27.4 | > 100 | 0.587 µM | > 68.5 | 0.328 µM | > 100 | 0.461 µM | > 100 | 0.346 | 55.1 | 0.533 | > 79.8 | 23.2 | > 100 | 14.8 | > 100 | – | –
N#CC(=NCCO)C1=C(O)c2ccccc2C1=O | – | > 100 | – | > 100 | – | > 100 | – | > 100 | – | > 100 | – | > 100 | – | > 100 | – | > 100 | – | > 100 | – | > 100
C=CCSS/C=C/CS(=O)CC=C (stereo not drawn) | – | > 100 | – | > 56.7 | – | > 100 | – | > 100 | – | > 100 | – | > 100 | – | > 100 | – | > 100 | – | > 100 | – | > 100
COc1ccc(OC)c2c(/C=C/c3ccc(N(C)C)cc3)ccnc12 | – | > 10 | – | > 10 | – | > 10 | – | > 10 | – | > 10 | – | > 10 | – | > 10 | – | > 10 | – | > 10 | – | > 10
COc1ccc(C(=O)COc2cccc(/C=C3\Oc4ccc5ccccc5c4C3=O)c2)cc1 | 21.1 µM | 52.5 | 2.45 | 10.3 | 14.9 µM | 28.1 | 2.45 µM | 16.1 | 1.54 µM | 3.23 | 12.3 | 29 | 1.98 | 5.6 | 12 | 24.7 | 6.42 | 23.2 | 14.4 | 42.8
Cc1cn2c(/C=C3\C(=O)N(C)c4ccc(O)cc43)c(C)nc2s1 | 7.9 µM | > 100 | 7.57 | > 100 | 18.2 µM | > 100 | 2.97 µM | 11.9 | 7.46 µM | > 100 | 2.86 | 10.2 | 4.48 | 64.5 | 16.1 | > 100 | 9.03 | > 100 | 14.8 | > 100
Cc1c(C2=C(Br)C(=O)N(C)C2=O)c(=O)n(C)c(=O)n1C | – | > 100 | – | 51.1 | – | > 100 | – | 37.1 | – | 49.6 | – | > 100 | – | 42.6 | – | 31.8 | – | 33.3 | – | 41.8
Cc1cc(C2CC(O)C(CO)O2)cc2c(=O)[nH]c(N)nc12 (stereo not drawn) | > 100 µM | > 100 | > 100 | > 100 | > 100 µM | > 100 | > 100 µM | > 100 | > 100 µM | > 100 | 81.3 | > 100 | > 100 | > 100 | – | – | > 100 | > 100 | > 100 | > 100
COc1cc2c3c(n(CCCN(C)C)c(=O)c2cc1OC)-c1ccccc1C3=O | 10.3 µM | > 54.6 | 21.4 | > 100 | 3.57 µM | > 89.8 | 2.34 µM | > 53.4 | 9.02 µM | > 48.7 | 6.9 | > 100 | 30.8 | > 100 | 38 | > 100 | 16.7 | 97.7 | > 43.7 | > 72.7
O=C(Nc1ccc(-n2cc(-c3ccncc3)c(-c3ccc(Cl)c(O)c3)n2)cc1)Nc1ccc(Cl)c(C(F)(F)F)c1 | 2.21 µM | 5.96 | 1.2 | 2.79 | 1.68 µM | 3.18 | 2.12 µM | 5.65 | 1.86 µM | 9.63 | 0.363 | 2.14 | 2.39 | 6.54 | 3.64 | 15.1 | 1.66 | 3.6 | 3.05 | 14.6
Oc1cn(-c2ccc(Cl)cc2)nc1-c1n[nH]c(=S)n1C1CCCCC1 | 2.03 µM | > 48.8 | 9.51 | > 100 | 1.67 µM | > 100 | – | > 100 | 11.4 µM | > 66.9 | 0.165 | 0.702 | 6.62 | > 100 | 0.807 | 34.1 | 17 | > 100 | 15.5 | > 100
O=C(Nc1ccc(CO)cc1)c1coc2ccccc2c1=O | > 100 µM | > 100 | 90.7 | > 100 | > 100 µM | > 100 | > 100 µM | > 100 | > 100 µM | > 100 | > 100 | > 100 | > 100 | > 100 | > 100 | > 100 | > 100 | > 100 | > 100 | > 100
O=C(Nc1ccc(-c2ccccc2)cc1)C1CCN(S(=O)(=O)c2ccccc2Cl)CC1 | 29.5 µM | > 100 | 13.9 | 56.3 | 18.8 µM | 40.9 | 41.2 µM | > 100 | 38 µM | > 100 | 36.5 | > 100 | > 100 | > 100 | 20.6 | 60.3 | 66.2 | > 100 | 73.5 | > 100
CCn1c(CO)nn(-c2cc(O[C@@H](C)C(F)(F)F)c(C(=O)Nc3c(F)cccc3Cl)cc2F)c1=O | < 0.01 µM | > 100 | – | > 100 | < 0.0255 µM | > 100 | < 0.01 µM | > 100 | < 0.01 µM | > 100 | – | > 100 | 0.0723 | 86.2 | – | – | 1.02 | > 100 | 8.47 | > 100
C[C@]12CC[C@H](O)C[C@H]1CC[C@@H]1[C@@H]2CC[C@]2(C)[C@@H](C3=CC(=O)OC3)CC[C@]12O | – | 0.0456 | – | 0.134 | 0.0313 µM | 0.169 | – | – | 0.178 µM | 3.7 | – | 2.12 | – | 0.858 | – | 1.59 | – | 4.07 | – | 0.433
N=C(N)SCc1cccc(-c2nc3ccccc3c(=O)o2)c1 | – | > 100 | – | > 100 | – | > 100 | – | > 100 | – | > 100 | – | > 100 | – | > 100 | – | > 100 | – | > 100 | – | > 100
O=C(/C=C/c1cc(CN2CCOCC2)c(O)c2ncccc12)c1cc(CN2CCOCC2)c(O)c2ncccc12 | 0.0285 µM | > 100 | 0.0287 | 16.9 | 0.0335 µM | > 39 | < 0.0175 µM | > 100 | 0.05 µM | > 100 | 0.0595 | 42.6 | 0.0574 | 2.48 | 0.0318 | > 100 | 0.0408 | > 100 | 0.077 | > 100
[Au+].[Au+].[Au+].[c-]1nccn1Cc1ccccc1.[c-]1nccn1Cc1ccccc1.[c-]1nccn1Cc1ccccc1 | 24.7 µM | 65.4 | 5.35 | 42.5 | 5.99 µM | 28.5 | 10.7 µM | 39 | 17.4 µM | 34.4 | 6.08 | 18.9 | 7.42 | 36.8 | 11.1 | 29.6 | 15 | 28.4 | 11.6 | 38.8
COc1cc2c(cc1O)C1Cc3ccc(OC)c(O)c3C(C2)N1C (stereo not drawn) | – | > 100 | – | > 100 | – | > 100 | – | > 100 | – | > 100 | – | – | – | > 100 | – | > 100 | – | > 100 | – | > 100
CC(C)N=c1cc2n(-c3ccc(Cl)cc3)c3ccccc3nc-2cc1Nc1ccc(Cl)cc1 | 1.85 µM and 1.84 µM | – | 1.47 | > 50 | 4.71 µM and 4.81 µM | > 100 | 1.28 µM and 2.36 µM | > 100 | 0.891 µM and 1.9 µM | > 50 | 1.23 | 15.9 | 2.37 | > 50 | – | > 100 | – | – | 1.4 | > 100
COc1ccc(-c2ccc(/C=N/n3c(C)n[nH]c3=S)o2)c([N+](=O)[O-])c1 | > 100 µM | > 100 | > 100 | > 100 | 46 µM | > 100 | > 100 µM | > 100 | > 100 µM | > 100 | – | – | > 100 | > 100 | 69.1 | > 100 | > 100 | > 100 | > 100 | > 100
C[C@]12CC[C@@H]3c4ccc(O)cc4CC[C@H]3[C@@H]1CC[C@@H]2NS(=O)(=O)c1cccc(F)c1 | 3.13 µM | 12.6 | 2.82 | 8.46 | 7.38 µM | 21.9 | 3.49 µM | 11 | 2.96 µM | 14 | 2.93 | 15 | 3.82 | 14.8 | 4.14 | 13.8 | 2.04 | 10.3 | – | –
Cc1ccc(S(=O)(=O)NCCNc2nccc(-c3c(-c4ccc(F)cc4)nc4sccn34)n2)cc1 | 3.44 µM | > 100 | 5.83 | 36 | 13.5 µM | 29.3 | 1.48 µM | > 100 | – | – | 2.65 | 15 | 3.85 | > 100 | 7.8 | 42.6 | 2.38 | > 100 | – | –
CC(=O)/C=C/c1ccc(C#Cc2ccccc2)s1 | 15.1 µM | 28.5 | 13.5 | 28 | 19.7 µM | 33.8 | 7.6 µM | 65 | 15.7 µM | 29 | – | – | 11.4 | 28.4 | 16.8 | 32.9 | 14.3 | 27.3 | 17.7 | 31.6
COc1ccc2c(c1)[C@@]13CCCC[C@H]1[C@@H](C2)N(C)CC3=O | – | 41 | – | 31.4 | – | > 100 | – | 33.2 | – | 29 | – | – | – | 33.2 | – | 40.7 | – | 32.9 | – | 43.4
COc1ccc2c(O)cc3c(c2c1)[C@H](CCl)CN3C(=O)c1cc2cc(NC(=O)CCN3CCOCC3)ccc2[se]1 | – | – | 0.00104 | 0.00649 | < 0.001 µM | 2.03 | < 0.001 µM | 1.39 | < 0.001 µM | 0.0699 | < 0.001 | 0.00156 | < 0.001 | – | < 0.001 | – | < 0.001 | < 0.001 | < 0.001 | 0.00471
